We go through 19 molecules from BindingDB's records for patent US20250304537 (Repare Therapeutics, 2025).

The test has as its target T1, Membrane-associated tyrosine- and threonine-specific cdc2-inhibitory kinase (Homo sapiens, UniProt Q99640).
T1 sequence (Q99640 whole entry): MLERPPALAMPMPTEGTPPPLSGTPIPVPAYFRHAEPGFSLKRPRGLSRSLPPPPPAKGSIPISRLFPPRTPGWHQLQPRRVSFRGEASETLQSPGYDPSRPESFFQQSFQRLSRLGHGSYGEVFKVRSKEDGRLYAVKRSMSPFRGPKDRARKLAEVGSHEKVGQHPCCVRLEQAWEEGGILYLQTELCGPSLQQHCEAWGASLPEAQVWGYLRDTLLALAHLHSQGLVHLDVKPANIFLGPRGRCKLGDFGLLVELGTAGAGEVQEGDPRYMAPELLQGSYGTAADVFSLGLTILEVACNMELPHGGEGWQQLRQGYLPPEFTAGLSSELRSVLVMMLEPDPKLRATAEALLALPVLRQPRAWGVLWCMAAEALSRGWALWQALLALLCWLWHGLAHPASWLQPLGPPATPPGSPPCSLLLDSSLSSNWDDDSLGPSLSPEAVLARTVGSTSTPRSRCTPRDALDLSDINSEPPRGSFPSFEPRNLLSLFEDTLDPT
Briefly: Enzymatic Assay. As to the method:
Detection of Myt1 kinase activity utilized a recombinant human Myt1 kinase assay measuring the hydrolysis of ATP using a commercially available ADP-Glo Assay (ADP-Glo™ Kinase Assay from Promega, 10 000 assays, #V9102). Briefly, 5 μL recombinant human Myt1 (full length PKMYT1 recombinant human protein expressed in insect cells from Thermo Fisher #A33387; ˜80% purity) was prepared in reaction buffer (70 mM HEPES, 3 mM MgCl2, 3 mM MnCl2, 50 μg/ml PEG 20000, 3 μM Na-orthovanadate, 1.2 mM DTT) and added to 384 well white polystyrene, flat bottom well, non-treated, microplate (Corning #3572). After this, 5 μL of compounds (diluted in reaction buffer to 0.5% DMSO) was added to the microplate and the plate was spun briefly and incubated at 22° C. for 15 minutes. Ultra-Pure Adenosine Triphosphate (ATP) solution (ADP-Glo kit from Promega) was diluted in reaction buffer and 5 μL was added to the microplate, spun down briefly and incubated for 60 minutes at 30° C. The final Myt1 enzyme concentration was 18 nM and the final ATP concentration was 10 μM. After the 60-minute incubation, 15 μL of ADP-Glo reagent was added and the plate was spun briefly and sealed and incubated in the dark for 40 minutes at 22° C. Following this, 30 μL of kinase detection reagent was added per well and the plate was spun briefly, sealed and incubated for 45-60 minutes at 22° C. in the dark. Luminescence was read using the Envision (250 ms integration). The IC50 and the % max inhibition were calculated for each inhibitor compound tested.

A value given as a limit tells only on which side of the number the result lay.

As to `Cc1ccc(O)cc1-c1nc(C2CCOCC2)nc(C(N)=O)c1N` [US20250304537, Compound 44], half-maximal inhibition (IC50) required 3180 nM.

`NC(=O)c1nc(-c2ccnnc2)cc(-c2cccc3[nH]ncc23)c1N` [US20250304537, Compound 69] yielded an IC50 of 131 nM.

In turn, `Cc1ccc(O)c(C)c1-c1nc(-c2ccnnc2)cc(C(N)=O)c1N` [US20250304537, Compound 77] yielded an IC50 of 27 nM.

In turn, `Cc1ccc2[nH]ncc2c1-c1nc(-c2ccnnc2)cc(C(N)=O)c1N` [US20250304537, Compound 120] came in with an IC50 of 329 nM.

Turning to `Cc1ccc2[nH]ncc2c1-c1nc(-c2ccc3[nH]ncc3c2)nc(C(N)=O)c1N` [US20250304537, Compound 130], the midpoint of inhibition, the IC50, lay at 66 nM. This IC50 lies about 5-fold lower than the previous one.

`Cc1ccc2[nH]ncc2c1-c1nc(-c2cccc(N3CCN(C)CC3)c2)nc(C(N)=O)c1N` [US20250304537, Compound 132]: the IC50 was 37 nM.

Turning to `Cc1ccc2[nH]ncc2c1-c1nc(-c2ccc(C#N)cc2)nc(C(N)=O)c1N` [US20250304537, Compound 133], the IC50 turned out to be 39 nM.

`Cc1ccc2[nH]ncc2c1-c1nc(-c2ccc(N3CCN(C)CC3)cc2)nc(C(N)=O)c1N` [US20250304537, Compound 134] had an IC50 of 142 nM.

In the case of `COc1cc(-c2nc(C(N)=O)c(N)c(-c3c(C)ccc4[nH]ncc34)n2)ccn1` [US20250304537, Compound 135], the IC50 amounted to 22 nM.

Molecule `Cc1cc(-c2nc(C(N)=O)c(N)c(-c3c(C)ccc4[nH]ncc34)n2)ccn1` [US20250304537, Compound 136] registered an IC50 of 25 nM.

Consider `Cc1ccc2[nH]ncc2c1-c1cc(-c2ccnc(OCC(F)(F)F)n2)nc(C(N)=O)c1N` [US20250304537, Compound 165], for which the IC50 was 586 nM. Compared with the last molecule, the IC50 is about 23-fold higher.

For `Cc1ccc2[nH]ncc2c1-c1cc(-c2ccnc(OCc3ccco3)n2)nc(C(N)=O)c1N` [US20250304537, Compound 213], the IC50 is 7 nM.

`CC(=O)N1CCN(c2nccc(-c3cc(-c4c(C)ccc5[nH]ncc45)c(N)c(C(N)=O)n3)n2)CC1` [US20250304537, Compound 215] had an IC50 of 7 nM.

In turn, `CCc1ccc2[nH]ncc2c1-c1nc(-c2cccnc2)nc(C(N)=O)c1N` [US20250304537, Compound 222] returned an IC50 above 2000 nM.

`Cc1ccc2[nH]ncc2c1-c1cc(-c2cccc(-c3ccccn3)n2)nc(C(N)=O)c1N` [US20250304537, Compound 236] returned an IC50 of 46 nM.

As for `Cc1ccc2[nH]ncc2c1-c1cc(-c2ccnc(OCc3nccn3C)n2)nc(C(N)=O)c1N` [US20250304537, Compound 301], the IC50 came to 4 nM. Against the preceding molecule, the IC50 is about 12-fold lower.

For the molecule `Cc1ccc2[nH]ncc2c1-c1cc(-c2ccnc(OCC3(C#N)CC3)n2)nc(C(N)=O)c1N` [US20250304537, Compound 324], 10 nM corresponded to half-maximal inhibition (IC50). This IC50 is about 2.5-fold higher than that of the molecule before.

Turning to `Cc1ccc2[nH]ncc2c1-c1cc(-c2ccnc(N[C@H]3CCOC[C@@H]3O)n2)nc(C(N)=O)c1N` [US20250304537, Compound 368], the IC50 was 15 nM.

As to `Cc1ccc2[nH]ncc2c1-c1nc(-c2cccnc2O)nc(C(N)=O)c1N` [US20250304537, Compound 598], it took 27 nM to reach half-maximal inhibition (IC50).

What is called IC50 is the concentration at which inhibition is half-maximal. A high value points to weaker potency in that assay.
